Molecules are shown by their SMILES.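 How tested: cells in 96-well plates exposed to compound for 48 hours at five concentrations. GI50: concentration for 50% inhibition of growth. Definition used: TGI = concentration required for complete inhibition of growth.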

The results in this text go back to PubChem BioAssay (NCI).

Test systems include MCF7 breast; SW-620 colon; PC-3 prostate; NCI-H23 lung; SK-MEL-2 melanoma; COLO 205 colon; SF-295 CNS; MDA-MB-231 breast; NCI/ADR-RES ovarian; HCC-2998 colon.
Holding throughout (assay): NCI-60 cell line screen, 48 h

With `CN1CCN(Cc2ccc(NC(=O)c3ccc(C(C)(C)C)c(C#Cc4cnc5cccnn45)c3)cc2C(F)(F)F)CC1`, the GI50 in the assay with MCF7 breast is 1.82 µM; in the assay on SW-620 colon, 2.04 µM; in the assay on PC-3 prostate, 1.89 µM; in the assay with NCI-H23 lung it was 1.85 µM; with SK-MEL-2 melanoma it was 8.8 µM; with COLO 205 colon, 1.8 µM. Further, the GI50 in the assay with SF-295 CNS is 1.97 µM; with MDA-MB-231 breast, 1.97 µM; in the assay on NCI/ADR-RES ovarian it was 2.34 µM; in the assay on HCC-2998 colon it was 1.83 µM. Besides, the TGI in the assay with MCF7 breast was determined as 3.46 µM; in the assay with SW-620 colon, 4.09 µM; in the assay on PC-3 prostate, 4.12 µM; in the assay on NCI-H23 lung, 3.89 µM; with SK-MEL-2 melanoma it was 22.5 µM; with COLO 205 colon it was 3.43 µM. Also, the TGI turned out to be 3.96 µM with SF-295 CNS, 4.14 µM in the assay on MDA-MB-231 breast, 5.86 µM in the assay on NCI/ADR-RES ovarian and 3.38 µM in the assay on HCC-2998 colon.

As to `COc1cc2c3c(n(CCCN4CCC(N)CC4)c(=O)c2cc1OC)-c1cc2c(cc1C3=O)OCO2`, the GI50 was 0.283 µM with MCF7 breast; 0.447 µM in the assay on SW-620 colon; 0.302 µM with PC-3 prostate; 0.475 µM in the assay on NCI-H23 lung; 3.68 µM in the assay on SK-MEL-2 melanoma; 2.86 µM in the assay on COLO 205 colon. Moreover, the GI50 with SF-295 CNS was 0.479 µM; in the assay with MDA-MB-231 breast, 0.682 µM; with NCI/ADR-RES ovarian, 2.93 µM; in the assay with HCC-2998 colon, 0.143 µM. For the same compound, the TGI in the assay with MCF7 breast worked out at 1.01 µM; with SW-620 colon, 1.43 µM; in the assay with PC-3 prostate, 2.11 µM; with NCI-H23 lung, 1.6 µM; with SK-MEL-2 melanoma, 24.2 µM; in the assay on COLO 205 colon it was 7.38 µM. Besides, the TGI was found to be 1.36 µM with SF-295 CNS, 1.36 µM with MDA-MB-231 breast, 20.8 µM with NCI/ADR-RES ovarian and 3.52 µM in the assay on HCC-2998 colon.

Consider `COc1ccc2c(-c3cc4ccccc4o3)cc(=O)oc2c1`, for which the TGI in the assay on MCF7 breast, in the assay on SW-620 colon, with PC-3 prostate, with NCI-H23 lung, in the assay on SK-MEL-2 melanoma and in the assay on COLO 205 colon was above 100 µM each time. For the same compound, the TGI in the assay on SF-295 CNS is 79.7 µM; in the assay on MDA-MB-231 breast, above 100 µM; with NCI/ADR-RES ovarian it was above 100 µM; in the assay on HCC-2998 colon, above 100 µM.

In the case of `Cc1ncc(NC(=O)c2ccc(CN3CCN(C)CC3)c(C(F)(F)F)c2)cc1Nc1nccc(-c2cccnc2)n1`, the GI50 is 13.8 µM in the assay on MCF7 breast; 13.5 µM with SW-620 colon; 16.9 µM in the assay with PC-3 prostate; 14.2 µM with NCI-H23 lung; 14.7 µM in the assay with SK-MEL-2 melanoma; 5.55 µM in the assay with COLO 205 colon. In addition, the GI50 in the assay with SF-295 CNS was 16.2 µM; in the assay with MDA-MB-231 breast it was 12.5 µM; in the assay on NCI/ADR-RES ovarian, 17.8 µM; with HCC-2998 colon, 13.4 µM. The TGI was 28.7 µM in the assay on MCF7 breast; 30.4 µM with SW-620 colon; 32.9 µM with PC-3 prostate; 28.3 µM in the assay on NCI-H23 lung; 29.4 µM in the assay on SK-MEL-2 melanoma; 21.6 µM in the assay with COLO 205 colon. Besides, the TGI with SF-295 CNS turned out to be 30 µM; in the assay on MDA-MB-231 breast it was 27.3 µM; in the assay on NCI/ADR-RES ovarian it was 34.8 µM; in the assay with HCC-2998 colon it was 26.6 µM.

Take `C[C@H]1CCC/C=C/[C@@H]2C[C@H](N)C[C@H]2[C@H](O)/C=C/C(=O)O1`: the GI50 in the assay on MCF7 breast, in the assay on SW-620 colon, in the assay on PC-3 prostate, in the assay on NCI-H23 lung, in the assay on SK-MEL-2 melanoma and with COLO 205 colon was above 100 µM each time. Besides, the GI50 in the assay on SF-295 CNS, with MDA-MB-231 breast, in the assay with NCI/ADR-RES ovarian and with HCC-2998 colon was above 100 µM in each case. Besides, the TGI in the assay on MCF7 breast, with SW-620 colon, in the assay on PC-3 prostate, with NCI-H23 lung, in the assay with SK-MEL-2 melanoma and in the assay on COLO 205 colon was above 100 µM throughout. The TGI in the assay on SF-295 CNS, in the assay on MDA-MB-231 breast, in the assay with NCI/ADR-RES ovarian and in the assay with HCC-2998 colon was above 100 µM throughout.

Turning to `CCCSc1cc(Cl)nc(N)n1`, the GI50 in the assay on MCF7 breast, in the assay on SW-620 colon, in the assay with PC-3 prostate, in the assay with NCI-H23 lung, in the assay with SK-MEL-2 melanoma and in the assay on COLO 205 colon was above 100 µM in each case. For the same compound, the GI50 with SF-295 CNS, with MDA-MB-231 breast, with NCI/ADR-RES ovarian and in the assay on HCC-2998 colon was above 100 µM in each case. For the same compound, the TGI with MCF7 breast, in the assay on SW-620 colon, in the assay on PC-3 prostate, with NCI-H23 lung, with SK-MEL-2 melanoma and with COLO 205 colon was above 100 µM in each case. The TGI in the assay on SF-295 CNS, in the assay with MDA-MB-231 breast, in the assay on NCI/ADR-RES ovarian and with HCC-2998 colon was above 100 µM in each case.

As for `Nc1ccc(SC23CC4CC(CC(C4)C2)C3)cc1`, the TGI in the assay on MCF7 breast, in the assay with SW-620 colon, with PC-3 prostate, in the assay on NCI-H23 lung, in the assay on SK-MEL-2 melanoma and in the assay on COLO 205 colon was above 100 µM each time. The TGI with SF-295 CNS, in the assay on MDA-MB-231 breast, with NCI/ADR-RES ovarian and in the assay on HCC-2998 colon was above 100 µM each time.

Regarding `CC(=O)n1c(-c2ccc(Cl)cc2)nc2c(c1=O)C(c1ccc(Cl)cc1)c1sc3c(Cl)cccc3c1O2` (stereo not given), the GI50 was 0.282 µM with MCF7 breast; 0.388 µM in the assay with SW-620 colon; 0.37 µM in the assay on PC-3 prostate; 0.513 µM in the assay on NCI-H23 lung; 0.482 µM in the assay with SK-MEL-2 melanoma; 0.364 µM in the assay on COLO 205 colon. Also, the GI50 is 0.31 µM in the assay with SF-295 CNS, 0.887 µM in the assay on MDA-MB-231 breast, 0.292 µM in the assay on NCI/ADR-RES ovarian and 1.09 µM in the assay on HCC-2998 colon. In addition, the TGI came out at 1.47 µM in the assay on MCF7 breast; 1.68 µM with SW-620 colon; 2.69 µM with PC-3 prostate; 2.32 µM with NCI-H23 lung; 2.15 µM in the assay with SK-MEL-2 melanoma; 1.57 µM with COLO 205 colon. Besides, the TGI in the assay on SF-295 CNS was 1.24 µM; in the assay on MDA-MB-231 breast it was 2.89 µM; in the assay on NCI/ADR-RES ovarian, 1.01 µM; with HCC-2998 colon, 2.57 µM.
